Measurements: patent US20230088704A1, “A PHARMACEUTICAL COMBINATION FOR THE TREATMENT OF A CANCER” (ABILITY PHARMACEUTICALS S.L., priority 2020, published 2023)

Legend:
[1] = test system: U87MG cells; assay: Human glioblastoma orthotopic xenograft, ABTL0812 with temozolomide; format: in vivo, nude mice; details: ABTL0812 oral 240 mg/kg 5 days/week; temozolomide oral 32 mg/Kg first 5 days
Procedure: Methods: Mice were intra-cerebrally injected with luciferase transfected U87MG cells. Animals were randomized 5 days after cell inoculation and treatments started. ABTL0812 was administered orally at 240 mg/kg 5 days/week; and temozolomide orally at 32 mg/Kg the first 5 days. Tumors were measured by quantification of bioluminescence intensity (BLI) of the region of interest.

[2] = test system: LA1-5S cells; assay: Cell viability (crystal violet), ABTL0812 with irinotecan; format: cell-based; details: ABTL0812 30 μM + irinotecan 4, 8, 16 μM; 72 hours
Procedure: (§1) Methods: LA1-5S cells were incubated with increasing concentrations of irinotecan (4 μM, 8 μM and 16 μM) and a fixed concentration of ABTL0812 (30 μM). Cells were treated for 72 hours in IMDM with 0.5% FBS. Cell viability was evaluated by crystal violet assay. Data is presented as mean±SEM of three independent experiments. Statistical analyses were performed according to the T-Test principle with GraphPad Prism® 5.0 software (*p<0.05; **p<0.01; ***p<0.001).

[3] = test system: Ishikawa cells; assay: Human endometrial cancer xenograft, ABTL0812 with bevacizumab; format: in vivo; details: ABTL0812 oral 120 mg/kg/day; Bevacizumab ip 100 μg/dose every four days
Procedure: Methods: Mice were injected with 4×10^6 Ishikawa cells in one flank to induce tumor formation. […] Bevacizumab was administered ip at 100 μg/dose, every four days up to four administration. Tumor volume and body weight were monitored 3 times a week.

[4] = test system: MiaPaca2 cells; assay: Cytotoxicity against MiaPaca2 cells; format: cell-based, human; details: previous results
[5] = test system: human immortalized THP1 macrophages and human primary macrophages; assay: Secretome of THP1 and primary macrophages, cytokine antibody array; format: cell-based
Procedure: Methods: Whole blood was collected from healthy donors, and circulating monocytes were purified using immunomagnetic separation. Monocytes were selected using anti-CD14 antibodies bound to magnetic beads, which were retained in the magnetic column and further eluted for culturing in vitro. Monocytes were differentiated to macrophages incubating with M-CSF1 at 20 ng/mL for 7 days. Once primary monocytes were differentiated to macrophages, these were polarized to M1 by incubation with LPS for 6 or 24 hours in the presence of ABTL0812 (50 or 100 μM). In parallel, differentiated macrophages were polarized to M2 by incubation with IL-4 and IL-13 for 24 hours in the presence of ABTL0812 (50 μM). THP-1 monocytes growing in suspension were differentiated to macrophages by incubation with PMA for 24 hours, inducing their attachment to the plates. Once THP-1 were differentiated to macrophages, these were polarized to M1 by incubation with LPS for 6 or 24 hours in the presence of ABTL0812 (50 μM). In parallel, differentiated macrophages were polarized to M2 by incubation with IL-4 and IL-13 for 24 hours in the presence of ABTL0812 (50 μM). The culture media from ABTL0812 treated M1, M2 and differentiated macrophages (M0) were incubated using the RayBio C-Series Human Cytokine Antibody Array C3 (RayBiotec). Culture media was incubated with a PVDF (Polyvinylidene fluoride) membrane containing antibodies against 42 different cytokines. After incubation of culture media, the membrane was incubated with secondary antibodies and further developed using HRP (Horseradish peroxidase) substrate.

[6] = test system: LA1-5S cells; assay: Cell viability (crystal violet), ABTL0812 with topotecan; format: cell-based; details: ABTL0812 30 μM + topotecan 0.5, 1, 2 μM; 72 hours
Procedure: as §1, with “of topotecan (0.5” for “of irinotecan (4”, “μM, 1” for “μM, 8”, “and 2” for “and 16”, “5.0 software.” for “5.0 software (*p<0.05; **p<0.01; ***p<0.001).”

[7] = test system: H157 cells; assay: PDL1 protein in xenograft tumors by western blot; format: in vivo, nude mice; details: ABTL0812 oral 120 mg/kg/day for three weeks
Procedure: (§2) Methods: Mice were injected with 4×10^6 H157 cells or 5×10^6 MiaPAca2 cells in one flank to induce tumor formation. […] After treatment, animals were sacrificed, tumor extracted and protein levels of PDL1 in cancer cells analyzed by western blot.

[8] = test system: MiaPaca2 cells; assay: PDL1 protein in xenograft tumors by western blot; format: in vivo, nude mice; details: ABTL0812 oral 120 mg/kg/day for three weeks
Procedure: as §2

[9] = test system: PD1; assay: PD1 expression in primary T cells by flow cytometry; format: cell-based, human; details: 6 hours
Procedure: Methods: Human PBMCs were purified from peripheral blood of healthy donors using Ficoll and cultured in vitro. Human T cells were activated by incubation with IL-2 and CD3 and CD28 antibodies for 10 days and then treated with ABTL0812 for 6 hours. Finally, levels of PD1 expressed in the membrane of T cells was analyzed by flow cytometry using specific antibodies. Results are indicated as % of positive cells and show the average of three independent experiments (t-test **p<0.01 and ***p<0.001).

[10] = test system: LA1-5S cells; assay: Cell viability (crystal violet), ABTL0812 with cyclophosphamide; format: cell-based; details: ABTL0812 30 μM + cyclophosphamide 1, 1.5, 2 μM; 72 hours
Procedure: Methods: LA1-5S cells were incubated with increasing concentrations of cyclophosphamide (1 μM, 1.5 μM and 2 μM) and a subIC50 fixed concentration of ABTL0812 (30 μM). Cells were treated for 72 hours in IMDM with 0.5% FBS. Cell viability was evaluated by crystal violet assay. Data is presented as mean±SEM of three independent experiments. Statistical analyses were performed according to the T-Test principle with GraphPad Prism® 5.0 software (*p<0.05; **p<0.01; ***p<0.001).

[11] = test system: LLC1 cells; assay: Syngeneic lung cancer model, subcutaneous LLC1, survival; format: in vivo, C57BL6 mice; details: ABTL0812 oral 120 mg/kg/day, anti-PD1 i.p. 100 ug/dose every three days
Procedure: C57BL6 mice were injected with 0.25×10^6 LLC1 cells in one flank to induce tumor formation. […] Tumor volume and body weight were monitored 3 times a week. End point criteria was based on tumors over 800 mm3, or clinical signs of toxicity, distress or suffering indicative of animal euthanasia.

[12] = common in immortalized THP1 cells and in primary macrophages

## CCCCC/C=C\C/C=C\CCCCCCC(O)C(=O)O (stereo not shown) [ABTL0812, COOH—CHOH—(CH2)6—(CH═CH—CH2)2—(CH2)3—CH3]
[1]
  disease-free survival: significantly increased the disease-free survival
[2]
  irinotecan cytotoxicity on addition of ABTL0812: significantly increased irinotecan cytotoxicity
[3]
  tumor volume: significantly reduced tumor volume
[4]
  IC50: 50 µM
[5]; ABTL0812 50 or 100 μM
  secreted IL-1β: upregulation
  secreted TNF-α: upregulation
[5]; [12]
  secreted CCL7: inhibited
  secreted CCL8: inhibited
  secreted CCL17: inhibited
  secreted CCL22: inhibited
  secreted IL-10: inhibited
[6]
  topotecan cytotoxicity on addition of ABTL0812: significantly increased topotecan cytotoxicity
[7]
  protein levels of PDL1 in tumor: Increases protein levels of PDL1 in tumor in vivo
[8]
  protein levels of PDL1 in tumor: Increases protein levels of PDL1 in tumor in vivo
[9]; activated (IL-2, CD3 and CD28 antibodies) human primary CD4 and CD8 T lymphocytes
  PD1 expression: induces the inhibition of PD1 expression
[9]; non-activated human primary CD4 and CD8 T lymphocytes
  PD1 expression: induces the inhibition of PD1 expression
[10]
  cyclophosphamide cytotoxicity on addition of ABTL0812: significantly increased cyclophosphamide cytotoxicity at 1 μM
[11]; after 9 days of treatment
  survival: 43%
[11]; after 14 days of treatment
  survival: 15%
